# Laboratory results taken from ChEMBL document CHEMBL1201862, “PubChem BioAssay data set” (2004).
#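 1) Cells in 96-well plates. 2) Compound, 48 h, 5 concentrations. 3) Linear interpolation between surrounding doses. 4) Unreached endpoint = highest concentration. At the GI50, growth is halved.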 Calls of active or inactive are those of the source. No stated cut-off is given here; in the data, active = GI50 up to about 1.1 µM and inactive = higher.
# How the values were obtained:
# Assay in all cases: NCI tumour cell line growth inhibition, 48 h
# [1] = tested on: 786-0
# [2] = tested on: A498
# [3] = tested on: ACHN
# [4] = tested on: BT-549
# [5] = tested on: COLO 205
# [6] = tested on: DU-145
# [7] = tested on: HL-60
# [8] = tested on: HOP-92
# [9] = tested on: M14
# [10] = tested on: MDA-MB-231
# [11] = tested on: NCI-H23
# [12] = tested on: OVCAR-4
# [13] = tested on: OVCAR-8
# [14] = tested on: PC-3
# [15] = tested on: RXF 393
# [16] = tested on: SK-MEL-28
# [17] = tested on: TK-10
# [18] = tested on: U-251
# [19] = tested on: UACC-62
# [20] = tested on: UO-31
SMILES,GI50 [1],GI50 [2],GI50 [3],GI50 [4],GI50 [5],GI50 [6],GI50 [7],GI50 [8],GI50 [9],GI50 [10],GI50 [11],GI50 [12],GI50 [13],GI50 [14],GI50 [15],GI50 [16],GI50 [17],GI50 [18],GI50 [19],GI50 [20]
Cc1[nH]c2ncn3[nH]c(=S)nc3c2c1Cc1ccccc1,> 100 µM (inactive),> 100 µM (inactive),> 100 µM (inactive),> 100 µM (inactive),> 100 µM (inactive),> 100 µM (inactive),> 100 µM (inactive),> 100 µM (inactive),> 100 µM (inactive),> 100 µM (inactive),> 100 µM (inactive),> 100 µM (inactive),> 100 µM (inactive),> 100 µM (inactive),26.5 µM (inactive),> 100 µM (inactive),> 100 µM (inactive),> 100 µM (inactive),> 100 µM (inactive),> 100 µM (inactive)
Cc1c(-c2ccccc2)c(-c2ccc(OCCN(C)C)cc2)n2ccccc12,7.11 µM (inactive),14.8 µM (inactive),13.9 µM (inactive),5.65 µM (inactive),1.64 µM (inactive),13.3 µM (inactive),3.67 µM (inactive),8.59 µM (inactive),1.79 µM (inactive),10.9 µM (inactive),16.6 µM (inactive),12.4 µM (inactive),13.8 µM (inactive),6.34 µM (inactive),7.69 µM (inactive),1.79 µM (inactive),13.2 µM (inactive),7.76 µM (inactive),1.84 µM (inactive),9.48 µM (inactive)
COC1=C(OC)C(=O)C(Sc2ccc3ccccc3c2)=CC1=O,3.72 µM (inactive),14.7 µM (inactive),8.28 µM (inactive),9.2 µM (inactive),7.24 µM (inactive),14.5 µM (inactive),0.716 µM (active),19 µM (inactive),4.35 µM (inactive),11.4 µM (inactive),11.2 µM (inactive),3.67 µM (inactive),10.4 µM (inactive),10 µM (inactive),6.85 µM (inactive),16.3 µM (inactive),12.2 µM (inactive),4.89 µM (inactive),7.64 µM (inactive),6.11 µM (inactive)
CCN(CC)CCN(C)c1ccc(CO)c2c1c(=O)c1ccccc1[s+]2[O-] (stereo not given),1.71 µM (inactive),10.7 µM (inactive),11.1 µM (inactive),13.8 µM (inactive),7.06 µM (inactive),14.6 µM (inactive),16.8 µM (inactive),8.89 µM (inactive),2.11 µM (inactive),2.84 µM (inactive),4.08 µM (inactive),5.6 µM (inactive),1.8 µM (inactive),13.7 µM (inactive),12 µM (inactive),5.05 µM (inactive),16.9 µM (inactive),1.69 µM (inactive),7.06 µM (inactive),16.3 µM (inactive)
CCOC(=O)c1cnccc1CC1(C#N)c2ccccc2C=CN1C(=O)c1ccccc1 (stereo not given),29.7 µM (inactive),96.4 µM (inactive),39.4 µM (inactive),51.6 µM (inactive),28.2 µM (inactive),35.6 µM (inactive),18.5 µM (inactive),37.5 µM (inactive),24.3 µM (inactive),25.5 µM (inactive),32.5 µM (inactive),21.7 µM (inactive),16.2 µM (inactive),20.4 µM (inactive),64.9 µM (inactive),58.2 µM (inactive),37.5 µM (inactive),37.3 µM (inactive),23.9 µM (inactive),27.2 µM (inactive)
Cc1c(-c2ccccc2)c(C#N)c2nnn(-c3ccc(Cl)cc3)c(=O)n12,18.3 µM (inactive),68.7 µM (inactive),4.26 µM (inactive),56.8 µM (inactive),11 µM (inactive),38.5 µM (inactive),4.43 µM (inactive),> 100 µM (inactive),5.08 µM (inactive),36.3 µM (inactive),37 µM (inactive),25.8 µM (inactive),25.3 µM (inactive),22.2 µM (inactive),28.2 µM (inactive),> 100 µM (inactive),77.1 µM (inactive),13.8 µM (inactive),0.869 µM (active),22.5 µM (inactive)
CN(CCCCN(C)CCc1ccc(Cl)c(Cl)c1)CCCCN1CCCC1,1.25 µM (inactive),1.72 µM (inactive),1.91 µM (inactive),1.87 µM (inactive),1.29 µM (inactive),2.73 µM (inactive),1.49 µM (inactive),1.26 µM (inactive),0.787 µM (active),0.75 µM (active),1.71 µM (inactive),1.83 µM (inactive),2.09 µM (inactive),1.57 µM (inactive),1.32 µM (inactive),0.533 µM (active),1.61 µM (inactive),0.745 µM (active),1.93 µM (inactive),0.509 µM (active)
